The results in this text go back to patent US20260138961A1, “MODULATORS OF MITOCHONDRIAL DNA REPLICATION” (Pretzel Therapeutics, Inc., priority 2022, published 2026).

As a reminder, the AC50 is the concentration giving half of the maximal activity seen.

For the test, the target named is T1, POLγ W748S + E1143G (Homo sapiens, UniProt P54098, E1143G/W748S).
T1 sequence (P54098 1-1239 W748S/E1143G): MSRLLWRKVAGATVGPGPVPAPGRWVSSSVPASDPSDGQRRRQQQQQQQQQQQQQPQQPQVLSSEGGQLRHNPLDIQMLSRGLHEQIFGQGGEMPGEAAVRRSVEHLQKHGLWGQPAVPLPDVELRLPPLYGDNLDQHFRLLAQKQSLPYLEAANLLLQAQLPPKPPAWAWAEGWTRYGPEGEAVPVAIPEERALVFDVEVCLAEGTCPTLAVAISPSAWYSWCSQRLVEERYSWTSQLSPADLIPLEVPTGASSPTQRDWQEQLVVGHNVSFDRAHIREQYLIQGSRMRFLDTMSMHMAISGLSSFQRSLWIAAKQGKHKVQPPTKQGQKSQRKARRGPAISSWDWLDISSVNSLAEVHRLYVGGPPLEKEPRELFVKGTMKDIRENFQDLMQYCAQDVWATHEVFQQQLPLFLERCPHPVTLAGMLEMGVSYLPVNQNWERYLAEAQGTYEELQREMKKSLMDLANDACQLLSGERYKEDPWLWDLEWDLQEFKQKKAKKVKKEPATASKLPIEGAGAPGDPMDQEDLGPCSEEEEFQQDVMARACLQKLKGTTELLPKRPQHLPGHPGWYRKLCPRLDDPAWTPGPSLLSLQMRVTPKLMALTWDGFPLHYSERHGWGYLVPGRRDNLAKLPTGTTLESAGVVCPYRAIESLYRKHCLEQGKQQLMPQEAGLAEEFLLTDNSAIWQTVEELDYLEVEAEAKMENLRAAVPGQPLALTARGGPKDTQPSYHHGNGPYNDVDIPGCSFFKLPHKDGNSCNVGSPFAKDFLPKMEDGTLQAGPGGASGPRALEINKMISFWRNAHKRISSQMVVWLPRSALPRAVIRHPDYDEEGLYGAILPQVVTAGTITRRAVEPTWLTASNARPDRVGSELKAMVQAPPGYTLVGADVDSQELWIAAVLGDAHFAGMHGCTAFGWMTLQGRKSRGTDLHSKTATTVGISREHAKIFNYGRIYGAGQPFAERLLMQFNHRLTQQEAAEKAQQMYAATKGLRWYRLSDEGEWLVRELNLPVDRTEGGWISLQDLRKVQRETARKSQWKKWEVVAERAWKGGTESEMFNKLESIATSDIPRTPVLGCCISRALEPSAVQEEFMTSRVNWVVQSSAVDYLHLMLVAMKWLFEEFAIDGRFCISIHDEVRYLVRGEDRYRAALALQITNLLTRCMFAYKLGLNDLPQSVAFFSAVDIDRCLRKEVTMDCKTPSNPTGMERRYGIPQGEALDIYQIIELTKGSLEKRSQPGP
T1 sequence (Q9UHN1 1-485 partner): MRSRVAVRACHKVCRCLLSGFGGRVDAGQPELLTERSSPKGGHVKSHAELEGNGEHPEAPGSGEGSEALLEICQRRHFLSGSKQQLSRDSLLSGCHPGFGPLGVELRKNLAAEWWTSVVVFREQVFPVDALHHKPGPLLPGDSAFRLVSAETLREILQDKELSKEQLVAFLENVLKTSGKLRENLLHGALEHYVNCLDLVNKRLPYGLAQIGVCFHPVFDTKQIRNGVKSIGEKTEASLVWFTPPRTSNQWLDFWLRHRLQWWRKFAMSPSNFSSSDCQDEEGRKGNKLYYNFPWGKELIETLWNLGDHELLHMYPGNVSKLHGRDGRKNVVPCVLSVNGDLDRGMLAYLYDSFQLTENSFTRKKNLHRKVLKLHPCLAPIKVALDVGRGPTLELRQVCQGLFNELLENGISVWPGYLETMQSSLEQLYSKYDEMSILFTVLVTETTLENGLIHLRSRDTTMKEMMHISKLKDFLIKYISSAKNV
Briefly: DNA polymerization assay, W748S + E1143G mutant. It counts as biochemical. The settings on record: stimulation of polymerase activity, primed M13mp18 ssDNA, 37° C. 2 hours. How it is done:
DNA Polymerization Assay to Monitor Effects on Human Wildtype POLγ and Four Disease-Causing Mutant Variants of Human POLγ.
The ability of small molecules to stimulate the polymerase activity of POLγ was analyzed in a quantitative fluorescence SYBR Green I assay with fluorescence intensity (FI) readout.
In the presence of dNTPs, wild type human POLγ and mutant derivatives thereof were incubated with single-stranded, circular M13mp18 ssDNA hybridized to a short DNA oligonucleotide that functions as a primer for initiation of DNA synthesis. POLγ and mutant derivatives thereof will extend the primer and use the M13mp18 molecule as a template to synthesize long stretches of double-stranded DNA. SYBR Green I, which is a double-stranded DNA-binding dye, was used to quantify formation of double-stranded DNA in the reaction. When bound to double-stranded DNA, SYBR Green I fluorescence increases by up to 100-fold.
The assay was performed in the 384-well plate format. Upon addition of compounds, changes in double-stranded DNA synthesis activity can be monitored by following effects on fluorescent intensity.
The reactions also contained the accessory POLγB subunit, and the human mitochondrial single-stranded DNA binding protein (mtSSB).
The DNA template mixture used in the assay contained 0.5 nM primed M13 mp18 ssDNA, 400 nM mtSSB, 0.1 mM Tris-HCl (pH 8.0), 0.1 mM dNTP, 10 mM MgCl2, 0.1 mg/mL BSA, 1 mM TCEP solution, and 0.02% Triton X-100. The DNA template mixture for the wild type protein contained either 100 μM dNTP, 1 μM dNTP, or 0.1 μM dNTP, designated in Table 2 as 100 μM, 1 μM, and 0.1 μM, respectfully.
Microplates with compounds (0.1 μL in each well) to be tested in the assay were prepared from 10 mM compound stocks in 100% DMSO, and equal amounts of DMSO without any compound were added to positive and negative control wells.
The protein mixture was dispensed (5 μL into each well) into compound plates and incubated at 37° C. for 15 minutes. After incubation, 5 μL of the DNA template mixture was dispensed into each well. The plates were then incubated at 37° C. for 2 hours.
During incubation, a combined stop buffer and detection reagent solution was prepared. The buffer contained 25 mM EDTA (pH 8.0), 0.02% Triton X-100, and SYBR Green I [Invitrogen] diluted 10,000× (for fluorescent readout). EDTA will stop the enzymatic reaction by chelating magnesium ions.
`Cc1cc(S(=O)(=O)Nc2csc(-n3cccn3)n2)c(C)cc1Cl` [Example 178, N-(2-(1H-pyrazol-1-yl)thiazol-4-yl)-4-chloro-2,5-dimethylbenzenesulfonamide]: the AC50 is 1000 nM. Take `Cc1cc(S(=O)(=O)Nc2csc(C(=O)N(CC(N)=O)C3CCCCC3)n2)c(C)cc1Cl` [Example 179, N-(2-amino-2-oxoethyl)-4-((4-chloro-2,5-dimethylphenyl)sulfonamido)-N-cyclohexylthiazole-2-carboxamide]: the AC50 is over 10000 nM.

Regarding `Cc1cc(S(=O)(=O)Nc2nc(-c3ccccc3)n(C)n2)c(C)cc1Cl` [Example 180, 4-chloro-2,5-dimethyl-N-(1-methyl-5-phenyl-1H-1,2,4-triazol-3-yl)benzenesulfonamide], the AC50 was over 10000 nM. Next, `Cc1cc(S(=O)(=O)Nc2csc(-c3ccn(C)n3)n2)c(C)cc1Cl` [Example 181, 4-chloro-2,5-dimethyl-N-(2-(1-methyl-1H-pyrazol-3-yl)thiazol-4-yl)benzenesulfonamide]: over 10000 nM; `Cc1cc(S(=O)(=O)Nc2csc(-c3cnn(C)c3)n2)c(C)cc1Cl` [Example 183, 4-chloro-2,5-dimethyl-N-(2-(1-methyl-1H-pyrazol-4-yl)thiazol-4-yl)benzenesulfonamide]: 700 nM.
